The results in this text go back to US20250034201A1, “PRODRUGS OF GANAXOLONE” (priority 2022, published 2025).

This data set is described as follows: in vitro. Type of data set: in vitro ADME, human. Here is the method: For several compounds only human liver microsomal stability was tested. […] The microsomal assays were carried out with and without the addition of NADPH at a final concentration of 1 mM. For negative control samples, NADPH reagent was not added. […] Note that compounds undergo only Phase I metabolism in liver microsomes.

The mark [1] stands for this setting: human liver microsomes 0.5 mg/mL, with NADPH, compound 0.5 μM, 37° C., read-out: Human Liver Microsomal Stability t1/2.
The mark [2] stands for this setting: human liver microsomes 0.5 mg/mL, with NADPH, compound 0.5 μM, read-out: Human Liver Microsomal Stability CLint (uL/min/mg liver) (converted).
[3] abbreviates: human liver microsomes, no NADPH, compound 0.5 μM.

Like-named read-outs stand apart in the source and are kept apart here.

As for `CC(=O)[C@H]1CC[C@H]2[C@@H]3CC[C@H]4C[C@](C)(OC(=O)CSC(C)(C)C(=O)NCCN(C)C)CC[C@]4(C)[C@H]3CC[C@]12C` [Compound 307], the “Comments: production of GNX (ganaxolone) in human liver microsomes” value (“Comments: production of GNX (ganaxolone)” below) (human liver microsomes) is listed as “In human no GNX produced”. For the same compound, under setting [1], the half-life amounted to 6.52 h. In addition, under setting [2], the microsomal CLint is 3.55 µL/min/mg. Also, under setting [3], the “Human Liver Microsomal Stability no NADPH, % remain 1 h” value is listed as 99%.
For `CC(=O)[C@H]1CC[C@H]2[C@@H]3CC[C@H]4C[C@](C)(OC(=O)CSC(C)(C)COC(=O)CN5CCOCC5)CC[C@]4(C)[C@H]3CC[C@]12C` [Compound 310], in that order: “In human no GNX produced”, 0.0483 h, 474 µL/min/mg and 1%.
For `CC(=O)[C@H]1CC[C@H]2[C@@H]3CC[C@H]4C[C@](C)(OC(=O)CCC(=O)O)CC[C@]4(C)[C@H]3CC[C@]12C` [Compound 407], in that order: “In human no GNX produced”, 1.33 h, 17.4 µL/min/mg and 99%.
On the same counts, the results for `CC(=O)[C@H]1CC[C@H]2[C@@H]3CC[C@H]4C[C@](C)(OC(=O)C5CC5C(=O)O)CC[C@]4(C)[C@H]3CC[C@]12C` (stereo partly drawn) [Compound 408] are “In human no GNX produced”, 2.38 h, 9.72 µL/min/mg and 76%.
With `CC(=O)[C@H]1CC[C@H]2[C@@H]3CC[C@H]4C[C@](C)(OC(=O)CCC(=O)OCCN(C)C)CC[C@]4(C)[C@H]3CC[C@]12C` [Compound 409], the “Comments: production of GNX (ganaxolone)” value (human liver microsomes) is reported as “In human small amount of GNX produced”. For the same compound, where the note is “human, microsomes”, the half-life came out at 0.213 h; the microsomal CLint was 108 µL/min/mg; the “Human Liver Microsomal Stability no NADPH, % remain 1 h” value is given as 7%.
In the case of `CC(=O)[C@H]1CC[C@H]2[C@@H]3CC[C@H]4C[C@](C)(OC(=O)CCC(=O)NCCN(C)C)CC[C@]4(C)[C@H]3CC[C@]12C` [Compound 410], the “Comments: production of GNX (ganaxolone)” value (human liver microsomes) is listed as “In human no GNX produced”. For the same compound, under setting [1], the half-life was 7.32 h. The microsomal CLint under setting [2] was 3.16 µL/min/mg. Further, the “Human Liver Microsomal Stability no NADPH, % remain 1 h” value under setting [3] turned out to be 99%.
On the same counts, the results for `CC(=O)[C@H]1CC[C@H]2[C@@H]3CC[C@H]4C[C@](C)(OC(=O)C5CC5C(=O)NCCN(C)C)CC[C@]4(C)[C@H]3CC[C@]12C` (stereo partly drawn) [Compound 411] are “In human small amount of GNX produced”, 7.4 h, 3.12 µL/min/mg and 99%.
As for `CC(=O)[C@H]1CC[C@H]2[C@@H]3CC[C@H]4C[C@](C)(OC(=O)CC(C)(C)C(=O)NCCN(C)C)CC[C@]4(C)[C@H]3CC[C@]12C` [Compound 412], the “Comments: production of GNX (ganaxolone)” value (human liver microsomes) was “In human small amount of GNX produced”. Under setting [1], the half-life turned out to be 4.55 h. Also, the microsomal CLint under setting [2] is 5.07 µL/min/mg. For the same compound, the “Human Liver Microsomal Stability no NADPH, % remain 1 h” value under setting [3] turned out to be 94%.
`CC(=O)[C@H]1CC[C@H]2[C@@H]3CC[C@H]4C[C@](C)(OC(=O)CC(C)(C)C(=O)OCCN(C)C)CC[C@]4(C)[C@H]3CC[C@]12C` [Compound 413]: the “Comments: production of GNX (ganaxolone)” value (human liver microsomes) was “In human no GNX produced”. Also, the half-life under setting [1] amounted to 2.1 h. Further, the microsomal CLint under setting [2] was 11 µL/min/mg. Moreover, the “Human Liver Microsomal Stability no NADPH, % remain 1 h” value under setting [3] turned out to be 89%.
